Measured values taken from patent US9580429B2, “Pyrrolo[3,2-D]pyrimidin-4-one derivatives and their use in therapy” (ASTRAZENECA AB, priority 2004, dated 2017).

Target: T1, human MPO (Homo sapiens, UniProt P05164)
T1 sequence (P05164 49-745): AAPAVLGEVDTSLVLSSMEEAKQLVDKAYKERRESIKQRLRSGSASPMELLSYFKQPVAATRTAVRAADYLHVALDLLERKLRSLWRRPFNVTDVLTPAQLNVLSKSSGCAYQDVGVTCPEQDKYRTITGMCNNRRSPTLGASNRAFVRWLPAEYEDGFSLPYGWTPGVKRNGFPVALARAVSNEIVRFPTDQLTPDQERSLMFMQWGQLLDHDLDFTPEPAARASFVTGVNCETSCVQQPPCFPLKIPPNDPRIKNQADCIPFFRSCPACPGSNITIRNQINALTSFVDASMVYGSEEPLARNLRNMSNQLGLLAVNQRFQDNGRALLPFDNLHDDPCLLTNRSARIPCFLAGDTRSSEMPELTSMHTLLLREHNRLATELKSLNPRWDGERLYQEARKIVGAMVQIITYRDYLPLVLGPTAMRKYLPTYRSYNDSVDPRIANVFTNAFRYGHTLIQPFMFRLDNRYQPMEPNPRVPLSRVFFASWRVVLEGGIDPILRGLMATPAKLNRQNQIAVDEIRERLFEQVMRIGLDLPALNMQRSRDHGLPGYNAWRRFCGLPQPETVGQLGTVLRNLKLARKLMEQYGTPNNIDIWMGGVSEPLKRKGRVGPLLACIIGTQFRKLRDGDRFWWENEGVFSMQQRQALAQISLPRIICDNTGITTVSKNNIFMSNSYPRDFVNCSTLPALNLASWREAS
Experiment: MPO inhibition screen (TMB oxidation, absorbance)
Format: biochemical
Conditions: in the presence of tyrosine (final 8 μM); human MPO 2.5 nM; H2O2 100 μM
Description: Methods for the determination of MPO inhibitory activity are disclosed in patent application WO 02/090575. The pharmacological activity of compounds according to the invention was tested in the following screen in which the compounds were either tested alone or in the presence of added tyrosine:
Assay buffer: 20 mM sodium/potassium phosphate buffer pH 6.5 containing 10 mM taurine and 100 mM NaCl.
Developing reagent: 2 mM 3,3′,5,5′-tetramethylbenzidine (TMB), 200 μM KI, 200 mM acetate buffer pH 5.4 with 20% DMF.
To 10 μl of diluted compounds in assay buffer, 40 μl of human MPO (final concentration 2.5 nM), with or without 20 μM tyrosine (final concentration, if present, 8 μM), was added and the mixture was incubated for 10 minutes at ambient temperature. Then 50 μl of H2O2 (final concentration 100 μM), or assay buffer alone as a control, were added. After incubation for 10 minutes at ambient temperature, the reaction was stopped by adding 10 μl 0.2 mg/ml of catalase (final concentration 18 μg/ml). The reaction mixture was left for an additional 5 minutes before 100 μl of TMB developing reagent was added. The amount of oxidised 3,3′,5,5′-tetramethylbenzidine formed was then measured after about 5 minutes using absorbance spectroscopy at about […]. IC50 values were then determined using standard procedures.

Row | IC50 | SMILES
1 | 260 nM | CC(C)Cn1c(=S)[nH]c(=O)c2[nH]ccc21 [Example 2, 1-Isobutyl-2-thioxo-1,2,3,5-tetrahydro-pyrrolo[3,2-d]pyrimidin-4-one]
2 | 220 nM | CCCOc1cccc(Cn2c(=S)[nH]c(=O)c3[nH]ccc32)c1OCCOC [Example 5, 1-[2-(2-Methoxyethoxy)-3-propoxybenzyl]-2-thioxo-1,2,3,5-tetrahydro-pyrrolo[3,2-d]pyrimidin-4-one]
3 | 1100 nM | CCOC(C)(C)Cn1c(=S)[nH]c(=O)c2[nH]ccc21 [Example 11, 1-(2-Ethoxy-2-methylpropyl)-2-thioxo-1,2,3,5-tetrahydro-pyrrolo[3,2-d]pyrimidin-4-one]
